Data on five compounds can be found in patent US4486441A, “Pseudotropyl halogeno-benzoates and their use in migraine treatment” (Merrell Toraude Et Compagnie, priority 1982, dated 1984).

Like-named read-outs stand apart in the source and are kept apart here.

Assay [1] addresses T1, 5-HT M-receptor (Oryctolagus cuniculus, UniProt A0A5F9C9J3).
T1 construct: determining their pA2 values in the isolated rabbit heart; from tissue; host or cells: isolated rabbit heart
T1 sequence (A0A5F9C9J3 1-494): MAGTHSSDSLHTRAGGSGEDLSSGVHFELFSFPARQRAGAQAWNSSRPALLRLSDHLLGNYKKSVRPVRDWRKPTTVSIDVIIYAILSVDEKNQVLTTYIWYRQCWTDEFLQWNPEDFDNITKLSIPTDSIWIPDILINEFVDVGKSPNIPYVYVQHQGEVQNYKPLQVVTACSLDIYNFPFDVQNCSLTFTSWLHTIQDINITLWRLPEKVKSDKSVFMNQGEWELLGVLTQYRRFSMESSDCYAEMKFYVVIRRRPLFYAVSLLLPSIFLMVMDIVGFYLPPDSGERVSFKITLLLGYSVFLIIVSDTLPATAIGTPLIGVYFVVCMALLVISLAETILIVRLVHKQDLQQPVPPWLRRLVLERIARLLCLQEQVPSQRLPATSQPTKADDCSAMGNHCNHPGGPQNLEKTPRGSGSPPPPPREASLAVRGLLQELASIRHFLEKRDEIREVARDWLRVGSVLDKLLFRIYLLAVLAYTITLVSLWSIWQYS
The following applies: potency as 5-HT M-receptor antagonist; values reported by Fozard et al, Eur. J. Pharmacol. 59(1979) and 49(1978); cited from earlier work.

In assay [2] the target is T1, 5-HT M-receptor. The assay can be described thus: pA2 against 5-HT in the isolated rabbit heart. As to the method:
The activity of the compounds against 5-HT can be assessed by determining their pA2 values in the isolated rabbit heart as described by Fozard et at Europ. J. Pharmacol. 59, 195-210 (1979). In the method described the molar concentration of antagonist which reduces the effects of twice the ED50 of 5-HT to that of the ED50 in the absence of antagonist is determined. The pA2 value is the negative logarithm of said molar concentrations.

[3] abbreviates: potency as 5-HT M-receptor antagonist, tests mentioned in the background section, read-out: pA2 (converted).

As to `CN1[C@@H]2CC[C@H]1C[C@@H](OC(=O)c1ccccc1)C2` [benzoyltropine], on 5-HT M-receptor [1], the pA2 was 7.2. Turning to `CN1[C@@H]2CC[C@H]1C[C@H](OC(=O)c1cc(Cl)cc(Cl)c1)C2` [Example 1, Pseudotropyl 3,5-Dichlorobenzoate (i.e. 3,5-Dichlorobenzoic Acid Exo-8-Methyl-8-Azabicyclo[3,2,1]Oct-3-Yl Ester)], the Kb at 5-HT M-receptor [2] (isolated rabbit heart, antagonism of 5-HT, read-out: pA2 (5-HT) (converted)) is 2.51 nM. Take `CN1[C@@H]2CC[C@H]1C[C@H](OC(=O)c1ccccc1)C2` [pseudotropyl benzoate]: on 5-HT M-receptor [1], the pA2 is given as 7.0.

For the compound `COc1cc(OC)cc(C(=O)O[C@@H]2C[C@H]3CC[C@@H](C2)N3C)c1` [pseudotropyl-3,5-dimethoxybenzoate], the Kb on 5-HT M-receptor [2] (setting [3]) was 251 nM. Still for that read-out and setting: in the case of `COc1cc(C(=O)O[C@@H]2C[C@H]3CC[C@@H](C2)N3C)cc(OC)c1OC` [pseudotropyl-3,4,5-trimethoxybenzoate] it was 2000 nM.
